Laboratory results: paper PMC8401933 (Molecules, 2021)
pIC50: −log10 of the molar value.

What was measured:
DMPK2 = target: T1, DMPK2 (Homo sapiens, UniProt Q6DT37); experiment: KINOMEscan binding; details: read-out: Percent Control
T1 construct: purchased Eurofins DiscoverX KINOMEscan

PIP5K1A = target: T2, PIP5K1A (Homo sapiens, UniProt Q99755); experiment: KINOMEscan binding; details: read-out: Percent Control
T2 construct: purchased Eurofins DiscoverX KINOMEscan

AAK1 = target: T3, AAK1 (Homo sapiens, UniProt Q2M2I8); experiment: KINOMEscan binding; details: read-out: Percent Control
T3 construct: purchased Eurofins DiscoverX KINOMEscan

DDR2 = target: T4, DDR2 (Homo sapiens, UniProt Q16832); experiment: KINOMEscan binding; details: read-out: Percent Control
T4 construct: purchased Eurofins DiscoverX KINOMEscan

LATS2 = target: T5, LATS2 (Homo sapiens, UniProt Q9NRM7); experiment: KINOMEscan binding; details: read-out: Percent Control
T5 construct: purchased Eurofins DiscoverX KINOMEscan

LTK = target: T6, LTK (Homo sapiens, UniProt P29376); experiment: KINOMEscan binding; details: read-out: Percent Control
T6 construct: purchased Eurofins DiscoverX KINOMEscan

RIOK2 = target: T7, RIOK2 (Homo sapiens, UniProt Q9BVS4); experiment: KINOMEscan binding; details: read-out: Percent Control
T7 construct: purchased Eurofins DiscoverX KINOMEscan

STK16 = target: T8, STK16 (Homo sapiens, UniProt O75716); experiment: KINOMEscan binding; details: read-out: Percent Control
T8 construct: purchased Eurofins DiscoverX KINOMEscan

NEK3 = target: T9, NEK3 (Homo sapiens, UniProt P51956); experiment: KINOMEscan binding; details: read-out: Percent Control
T9 construct: purchased Eurofins DiscoverX KINOMEscan

TAK1 = target: T10, TAK1 (Homo sapiens, UniProt O43318); experiment: KINOMEscan binding; details: read-out: Percent Control
T10 construct: purchased Eurofins DiscoverX KINOMEscan

YSK1 = target: T11, YSK1 (Homo sapiens, UniProt O00506); experiment: KINOMEscan binding; details: read-out: Percent Control
T11 construct: purchased Eurofins DiscoverX KINOMEscan

DYRK1A = target: T12, DYRK1A (Homo sapiens, UniProt Q13627); experiment: KINOMEscan binding; details: read-out: Percent Control
T12 construct: purchased Eurofins DiscoverX KINOMEscan

MEK1 = target: T13, MEK1 (Homo sapiens, UniProt Q02750); experiment: KINOMEscan binding; details: read-out: Percent Control
T13 construct: purchased Eurofins DiscoverX KINOMEscan
T13 sequence (Q02750 whole entry): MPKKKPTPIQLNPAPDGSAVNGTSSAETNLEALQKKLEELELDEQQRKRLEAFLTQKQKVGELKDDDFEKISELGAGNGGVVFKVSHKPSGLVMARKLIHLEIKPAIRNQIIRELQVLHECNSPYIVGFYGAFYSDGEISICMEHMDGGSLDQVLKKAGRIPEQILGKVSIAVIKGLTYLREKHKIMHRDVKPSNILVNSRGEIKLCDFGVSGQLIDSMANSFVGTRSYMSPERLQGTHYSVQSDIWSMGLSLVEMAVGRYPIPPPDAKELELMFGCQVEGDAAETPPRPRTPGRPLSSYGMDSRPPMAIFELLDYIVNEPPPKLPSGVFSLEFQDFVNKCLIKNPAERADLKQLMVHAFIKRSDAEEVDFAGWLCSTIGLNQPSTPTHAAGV

ABL1-phosphorylated = target: T14, ABL1-phosphorylated (Homo sapiens, UniProt P00519); experiment: KINOMEscan binding; details: read-out: Percent Control
T14 construct: purchased Eurofins DiscoverX KINOMEscan

SIK2 = target: T15, SIK2 (Homo sapiens, UniProt Q9H0K1); experiment: KINOMEscan binding; details: read-out: Percent Control
T15 construct: purchased Eurofins DiscoverX KINOMEscan

HPK1 = target: T16, HPK1 (Homo sapiens, UniProt Q92918); experiment: KINOMEscan binding; details: read-out: Percent Control
T16 construct: purchased Eurofins DiscoverX KINOMEscan

PDGFRB = target: T17, PDGFRB (Homo sapiens, UniProt P09619); experiment: KINOMEscan binding; details: read-out: Percent Control
T17 construct: purchased Eurofins DiscoverX KINOMEscan

PIK3CA(E542K) = target: T18, PIK3CA(E542K) (Homo sapiens, UniProt P42336, E542K); experiment: KINOMEscan binding; details: read-out: Percent Control
T18 construct: purchased Eurofins DiscoverX KINOMEscan
T18 sequence (P42336 whole entry E542K): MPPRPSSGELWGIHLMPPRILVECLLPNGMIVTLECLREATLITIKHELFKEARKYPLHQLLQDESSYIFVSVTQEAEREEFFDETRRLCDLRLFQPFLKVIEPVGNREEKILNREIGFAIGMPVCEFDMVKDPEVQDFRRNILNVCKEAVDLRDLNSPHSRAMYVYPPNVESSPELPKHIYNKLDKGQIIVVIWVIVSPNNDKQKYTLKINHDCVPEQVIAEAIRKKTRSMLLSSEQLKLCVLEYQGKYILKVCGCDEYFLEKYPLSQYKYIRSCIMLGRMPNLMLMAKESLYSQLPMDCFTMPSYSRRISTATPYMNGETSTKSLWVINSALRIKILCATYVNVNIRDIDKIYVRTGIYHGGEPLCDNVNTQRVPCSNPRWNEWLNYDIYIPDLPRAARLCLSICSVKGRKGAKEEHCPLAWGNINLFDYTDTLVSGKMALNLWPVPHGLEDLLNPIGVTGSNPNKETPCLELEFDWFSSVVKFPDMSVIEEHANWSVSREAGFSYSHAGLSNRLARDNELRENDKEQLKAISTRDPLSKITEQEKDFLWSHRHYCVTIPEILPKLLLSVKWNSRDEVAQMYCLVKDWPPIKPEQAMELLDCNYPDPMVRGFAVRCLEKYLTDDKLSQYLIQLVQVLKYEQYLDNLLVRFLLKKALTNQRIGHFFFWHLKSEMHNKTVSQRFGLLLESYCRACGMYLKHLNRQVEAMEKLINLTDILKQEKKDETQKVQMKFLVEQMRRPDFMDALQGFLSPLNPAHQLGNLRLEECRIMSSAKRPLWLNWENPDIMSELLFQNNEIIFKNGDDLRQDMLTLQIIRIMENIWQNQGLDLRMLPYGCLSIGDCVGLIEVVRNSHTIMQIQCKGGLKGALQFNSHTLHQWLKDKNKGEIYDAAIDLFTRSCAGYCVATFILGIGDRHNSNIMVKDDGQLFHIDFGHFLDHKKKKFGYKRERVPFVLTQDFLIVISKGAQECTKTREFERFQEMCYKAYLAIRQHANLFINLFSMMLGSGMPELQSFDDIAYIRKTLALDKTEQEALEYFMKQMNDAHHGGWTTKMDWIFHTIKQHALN

MAP4K2 = target: T19, MAP4K2 (Homo sapiens, UniProt Q12851); experiment: KINOMEscan binding; details: read-out: Percent Control
T19 construct: purchased Eurofins DiscoverX KINOMEscan

[1] = target: T20, TYK2(JH2domain-pseudokinase) (Homo sapiens, UniProt P29597); experiment: KINOMEscan binding; details: read-out: Percent Control
T20 construct: TYK2(JH2domain-pseudokinase); purchased Eurofins DiscoverX KINOMEscan

TAOK2 = target: T21, TAOK2 (Homo sapiens, UniProt Q9UL54); experiment: KINOMEscan binding; details: read-out: Percent Control
T21 construct: purchased Eurofins DiscoverX KINOMEscan

DRAK2 = target: T22, DRAK2 (Homo sapiens, UniProt O94768); experiment: KINOMEscan binding; details: read-out: Percent Control
T22 construct: purchased Eurofins DiscoverX KINOMEscan

MAP4K4 = target: T23, MAP4K4 (Homo sapiens, UniProt O95819); experiment: KINOMEscan binding; details: read-out: Percent Control
T23 construct: purchased Eurofins DiscoverX KINOMEscan

MYLK2 = target: T24, MYLK2 (Homo sapiens, UniProt Q9H1R3); experiment: KINOMEscan binding; details: read-out: Percent Control
T24 construct: purchased Eurofins DiscoverX KINOMEscan

CAMK1G = target: T25, CAMK1G (Homo sapiens, UniProt Q96NX5); experiment: KINOMEscan binding; details: read-out: Percent Control
T25 construct: purchased Eurofins DiscoverX KINOMEscan

MST4 = target: T26, MST4 (Homo sapiens, UniProt Q9P289); experiment: KINOMEscan binding; details: read-out: Percent Control
T26 construct: purchased Eurofins DiscoverX KINOMEscan

PRKCE = target: T27, PRKCE (Homo sapiens, UniProt Q02156); experiment: KINOMEscan binding; details: read-out: Percent Control
T27 construct: purchased Eurofins DiscoverX KINOMEscan

PRKG2 = target: T28, PRKG2 (Homo sapiens, UniProt Q13237); experiment: KINOMEscan binding; details: read-out: Percent Control
T28 construct: purchased Eurofins DiscoverX KINOMEscan

CDK4-cyclinD1 = target: T29, CDK4-cyclinD1 (Homo sapiens, UniProt P11802); experiment: KINOMEscan binding; details: read-out: Percent Control
T29 construct: purchased Eurofins DiscoverX KINOMEscan

TAOK3 = target: T30, TAOK3 (Homo sapiens, UniProt Q9H2K8); experiment: KINOMEscan binding; details: read-out: Percent Control
T30 construct: purchased Eurofins DiscoverX KINOMEscan

NEK7 = target: T31, NEK7 (Homo sapiens, UniProt Q8TDX7); experiment: KINOMEscan binding; details: read-out: Percent Control
T31 construct: purchased Eurofins DiscoverX KINOMEscan
T31 sequence (Q8TDX7 whole entry): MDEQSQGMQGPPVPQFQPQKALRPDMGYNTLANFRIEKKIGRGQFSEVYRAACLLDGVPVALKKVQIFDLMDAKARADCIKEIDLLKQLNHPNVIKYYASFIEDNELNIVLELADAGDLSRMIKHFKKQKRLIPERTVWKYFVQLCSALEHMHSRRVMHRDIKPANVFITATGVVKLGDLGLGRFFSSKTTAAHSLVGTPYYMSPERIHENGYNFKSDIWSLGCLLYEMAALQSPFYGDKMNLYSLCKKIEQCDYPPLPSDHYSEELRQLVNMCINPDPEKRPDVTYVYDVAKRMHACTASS

PCTK1 = target: T32, PCTK1 (Homo sapiens, UniProt Q00536); experiment: KINOMEscan binding; details: read-out: Percent Control
T32 construct: purchased Eurofins DiscoverX KINOMEscan

[2] = target: T33, ABL1(T315I)-phosphorylated (Homo sapiens, UniProt P00519, T315I); experiment: KINOMEscan binding; details: read-out: Percent Control
T33 construct: purchased Eurofins DiscoverX KINOMEscan

PLK2 = target: T34, PLK2 (Homo sapiens, UniProt Q9NYY3); experiment: KINOMEscan binding; details: read-out: Percent Control
T34 construct: purchased Eurofins DiscoverX KINOMEscan

HCK = target: T35, HCK (Homo sapiens, UniProt P08631); experiment: KINOMEscan binding; details: read-out: Percent Control
T35 construct: purchased Eurofins DiscoverX KINOMEscan

MAP3K2 = target: T36, MAP3K2 (Homo sapiens, UniProt Q9Y2U5); experiment: KINOMEscan binding; details: read-out: Percent Control
T36 construct: purchased Eurofins DiscoverX KINOMEscan

IRAK3 = target: T37, IRAK3 (Homo sapiens, UniProt Q9Y616); experiment: KINOMEscan binding; details: read-out: Percent Control
T37 construct: purchased Eurofins DiscoverX KINOMEscan

LRRK2 = target: T38, LRRK2 (Homo sapiens, UniProt Q5S007); experiment: KINOMEscan binding; details: read-out: Percent Control
T38 construct: purchased Eurofins DiscoverX KINOMEscan
T38 sequence (Q5S007 whole entry): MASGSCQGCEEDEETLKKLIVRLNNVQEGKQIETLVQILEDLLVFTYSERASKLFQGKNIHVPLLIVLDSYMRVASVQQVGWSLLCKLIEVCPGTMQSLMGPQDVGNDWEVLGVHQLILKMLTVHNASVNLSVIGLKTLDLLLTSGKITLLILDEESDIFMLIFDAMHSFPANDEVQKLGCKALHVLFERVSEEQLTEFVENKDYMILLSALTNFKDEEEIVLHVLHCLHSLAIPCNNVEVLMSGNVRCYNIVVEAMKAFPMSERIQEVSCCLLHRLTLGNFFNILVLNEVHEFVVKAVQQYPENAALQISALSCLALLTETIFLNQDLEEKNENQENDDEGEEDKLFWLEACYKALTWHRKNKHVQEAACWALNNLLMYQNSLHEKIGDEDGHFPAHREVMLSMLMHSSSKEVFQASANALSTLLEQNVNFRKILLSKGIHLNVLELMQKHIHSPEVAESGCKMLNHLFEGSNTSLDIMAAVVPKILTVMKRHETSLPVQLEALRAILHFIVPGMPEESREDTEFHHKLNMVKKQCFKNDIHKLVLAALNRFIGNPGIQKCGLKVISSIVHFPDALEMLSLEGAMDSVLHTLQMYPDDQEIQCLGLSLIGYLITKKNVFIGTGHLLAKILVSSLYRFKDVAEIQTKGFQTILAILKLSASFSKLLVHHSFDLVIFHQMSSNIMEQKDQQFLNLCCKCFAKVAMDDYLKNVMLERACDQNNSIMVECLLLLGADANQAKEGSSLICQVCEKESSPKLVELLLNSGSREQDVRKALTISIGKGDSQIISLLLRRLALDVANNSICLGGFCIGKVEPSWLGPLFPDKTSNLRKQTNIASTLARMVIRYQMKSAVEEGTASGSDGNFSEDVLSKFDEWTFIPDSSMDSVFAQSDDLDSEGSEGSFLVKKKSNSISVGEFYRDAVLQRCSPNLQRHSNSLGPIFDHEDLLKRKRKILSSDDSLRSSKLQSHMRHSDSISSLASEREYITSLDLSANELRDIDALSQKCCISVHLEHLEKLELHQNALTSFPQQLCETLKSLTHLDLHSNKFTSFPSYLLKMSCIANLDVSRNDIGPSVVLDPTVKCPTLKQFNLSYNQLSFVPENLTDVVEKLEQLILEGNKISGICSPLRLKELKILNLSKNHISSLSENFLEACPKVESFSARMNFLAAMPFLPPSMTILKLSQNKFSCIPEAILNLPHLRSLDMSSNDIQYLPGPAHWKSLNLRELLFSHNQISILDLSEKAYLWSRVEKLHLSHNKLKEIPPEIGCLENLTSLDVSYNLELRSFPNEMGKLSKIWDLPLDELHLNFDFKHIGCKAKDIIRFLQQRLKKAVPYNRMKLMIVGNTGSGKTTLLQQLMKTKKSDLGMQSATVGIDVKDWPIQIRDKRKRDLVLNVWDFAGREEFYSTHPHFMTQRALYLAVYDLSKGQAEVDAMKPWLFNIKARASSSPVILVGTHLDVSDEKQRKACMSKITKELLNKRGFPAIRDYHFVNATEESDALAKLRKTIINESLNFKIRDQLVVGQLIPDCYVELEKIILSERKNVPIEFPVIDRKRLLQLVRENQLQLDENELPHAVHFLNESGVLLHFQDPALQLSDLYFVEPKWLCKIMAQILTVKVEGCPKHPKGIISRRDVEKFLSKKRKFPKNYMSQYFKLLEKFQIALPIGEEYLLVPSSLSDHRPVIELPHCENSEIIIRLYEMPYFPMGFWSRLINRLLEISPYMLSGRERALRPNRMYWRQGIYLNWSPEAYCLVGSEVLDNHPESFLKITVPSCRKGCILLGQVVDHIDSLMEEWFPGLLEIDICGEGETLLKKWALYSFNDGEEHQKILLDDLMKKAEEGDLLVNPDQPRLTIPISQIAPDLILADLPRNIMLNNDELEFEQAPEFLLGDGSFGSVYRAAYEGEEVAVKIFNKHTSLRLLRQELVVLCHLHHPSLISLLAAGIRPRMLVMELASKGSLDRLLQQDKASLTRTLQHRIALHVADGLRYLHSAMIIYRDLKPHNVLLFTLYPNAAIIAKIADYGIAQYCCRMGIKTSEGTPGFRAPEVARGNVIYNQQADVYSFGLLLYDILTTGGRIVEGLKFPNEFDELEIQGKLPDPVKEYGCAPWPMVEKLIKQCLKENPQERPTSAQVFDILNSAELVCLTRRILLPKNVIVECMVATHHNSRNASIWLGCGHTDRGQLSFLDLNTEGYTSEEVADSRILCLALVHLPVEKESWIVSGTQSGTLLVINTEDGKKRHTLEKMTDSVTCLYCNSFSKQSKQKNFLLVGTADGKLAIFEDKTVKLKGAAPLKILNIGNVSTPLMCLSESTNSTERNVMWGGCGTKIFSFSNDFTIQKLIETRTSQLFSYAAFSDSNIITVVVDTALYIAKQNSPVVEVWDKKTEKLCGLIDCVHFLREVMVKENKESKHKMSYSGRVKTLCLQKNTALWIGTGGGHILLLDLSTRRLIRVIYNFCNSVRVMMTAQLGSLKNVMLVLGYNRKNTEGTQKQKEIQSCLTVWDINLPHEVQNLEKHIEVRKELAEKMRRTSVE

LYN = target: T39, LYN (Homo sapiens, UniProt P07948); experiment: KINOMEscan binding; details: read-out: Percent Control
T39 construct: purchased Eurofins DiscoverX KINOMEscan

NIM1 = target: T40, NIM1 (Homo sapiens, UniProt Q8IY84); experiment: KINOMEscan binding; details: read-out: Percent Control
T40 construct: purchased Eurofins DiscoverX KINOMEscan

TGFBR2 = target: T41, TGFBR2 (Homo sapiens, UniProt P37173); experiment: KINOMEscan binding; details: read-out: Percent Control
T41 construct: purchased Eurofins DiscoverX KINOMEscan
T41 sequence (P37173 23-567): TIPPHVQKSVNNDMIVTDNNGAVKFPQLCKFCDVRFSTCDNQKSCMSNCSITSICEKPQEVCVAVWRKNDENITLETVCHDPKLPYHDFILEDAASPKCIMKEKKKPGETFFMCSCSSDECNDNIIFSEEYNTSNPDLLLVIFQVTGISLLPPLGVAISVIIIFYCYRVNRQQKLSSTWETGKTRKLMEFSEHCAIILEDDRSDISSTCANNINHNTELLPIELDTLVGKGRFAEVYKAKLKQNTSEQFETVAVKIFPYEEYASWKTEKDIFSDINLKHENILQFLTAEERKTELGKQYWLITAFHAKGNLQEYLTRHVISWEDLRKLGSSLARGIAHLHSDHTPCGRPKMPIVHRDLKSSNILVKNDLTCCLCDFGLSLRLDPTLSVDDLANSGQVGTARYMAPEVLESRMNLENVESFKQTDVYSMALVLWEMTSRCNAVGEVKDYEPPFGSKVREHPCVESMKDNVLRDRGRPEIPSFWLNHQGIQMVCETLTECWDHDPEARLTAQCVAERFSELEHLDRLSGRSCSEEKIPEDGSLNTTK

TLK1 = target: T42, TLK1 (Homo sapiens, UniProt Q9UKI8); experiment: KINOMEscan binding; details: read-out: Percent Control
T42 construct: purchased Eurofins DiscoverX KINOMEscan

TLK2 = target: T43, TLK2 (Homo sapiens, UniProt Q86UE8); experiment: KINOMEscan binding; details: read-out: Percent Control
T43 construct: purchased Eurofins DiscoverX KINOMEscan

ROCK2 = test system: ROCK2; parameters: method as in PMID 18832915; details: cited from earlier work

Compound `CC(C)NC(=O)COc1cccc(-c2nc(Nc3ccc4[nH]ncc4c3)c3ccccc3n2)c1` [KD025, 2-(3-(4-((1H-indazol-5-yl)amino)quinazolin-2-yl)phenoxy)-N-isopropylacetamide] has a remaining binding at 10 µM (DMPK2) of 3.9%, a remaining binding at 10 µM (PIP5K1A) of 6% and a remaining binding at 10 µM (AAK1) of 29%. The remaining binding at 10 µM (DDR2) was 45%, the remaining binding at 10 µM (LATS2) was 48% and the remaining binding at 10 µM (LTK) was 49%. The remaining binding at 10 µM (RIOK2) was 60%, the remaining binding at 10 µM (STK16) was 62% and the remaining binding at 10 µM (NEK3) was 64%. For the same compound, the remaining binding at 10 µM (TAK1) was 68%, the remaining binding at 10 µM (YSK1) was 70% and the remaining binding at 10 µM (DYRK1A) was 72%. For the same compound, the remaining binding at 10 µM (MEK1) was 72%, the remaining binding at 10 µM (ABL1-phosphorylated) was 73% and the remaining binding at 10 µM (SIK2) was 74%. For the same compound, the remaining binding at 10 µM (HPK1) was 76%, the remaining binding at 10 µM (PDGFRB) was 76% and the remaining binding at 10 µM (PIK3CA(E542K)) was 78%. For the same compound, the remaining binding at 10 µM (MAP4K2) was 80%, the remaining binding at 10 µM [1] was 81% and the remaining binding at 10 µM (TAOK2) was 83%. For the same compound, the remaining binding at 10 µM (DRAK2) was 85%, the remaining binding at 10 µM (MAP4K4) was 87% and the remaining binding at 10 µM (MYLK2) was 87%. For the same compound, the remaining binding at 10 µM (CAMK1G) was 88%, the remaining binding at 10 µM (MST4) was 88% and the remaining binding at 10 µM (PRKCE) was 88%. For the same compound, the remaining binding at 10 µM (PRKG2) was 88%, the remaining binding at 10 µM (CDK4-cyclinD1) was 89% and the remaining binding at 10 µM (TAOK3) was 89%. It also gave a remaining binding at 10 µM (NEK7) of 91%, a remaining binding at 10 µM (PCTK1) of 91% and a remaining binding at 10 µM [2] of 93%. For the same compound, the remaining binding at 10 µM (PLK2) was 94%, the remaining binding at 10 µM (HCK) was 95% and the remaining binding at 10 µM (MAP3K2) was 95%. The remaining binding at 10 µM (IRAK3) was 96%, the remaining binding at 10 µM (LRRK2) was 100% and the remaining binding at 10 µM (LYN) was 100%. For the same compound, the remaining binding at 10 µM (NIM1) was 100%, the remaining binding at 10 µM (TGFBR2) was 100% and the remaining binding at 10 µM (TLK1) was 100%. For the same compound, the remaining binding at 10 µM (TLK2) was 100% and the pIC50 (ROCK2) was […].
